“Also recorded” adds a separate entry of the source.
Key:
C2C12 cells [1] = type: cell-based, mouse; conditions: dexpramipexole 30 μM or PSI 30 nM, 18 hr, relative to control
Protocol: (§1) Data are presented as a percentage of the vehicle-treated control ±SEM (n=10 wells at each concentration). […] Experiments commenced 18 hr. after addition of drug. […] Data are presented as a percentage of the vehicle-treated control±SEM (n=14-17 wells for each group).
(§2) The C2C12 mouse myoblast cell line (ATCC, Manasses, Va.) was cultured in Dulbecco's Modified Eagle Medium (DMEM; Gibco®; Carlsbad, Calif.) supplemented with 10% fetal bovine serum (FBS), 2 mM GlutaMax® and penicillin/streptomycin. Cells were maintained in 10% CO2 humidified at 37° C.
(§3) Cellular viability was measured using CellTiter-Blue® (Promega Corp., Madison, Wis.) in black-walled optical imaging multiwell plates, and cellular ATP was measured using the CellTiter-Glo® (Promega Corp., Madison, Wis.) luminescence assay in opaque-walled multiwell plates according to the manufacturer's protocol.

[2] = test system: human neuroblastoma SH-SY5Y cells; conditions: MPP^+ or PSI exposure; cited from earlier work
C2C12 cells [3] = conditions: mouse, 18 h, 30 µM
Protocol: as §1, §2, §3

[4] = test system: SH-SY5Y neuroblastoma cells; assay: PSI-induced cell death in SH-SY5Y cells (CellTiter-Blue)
Protocol: Data shown represent mean±SEM. […] Bar graphs represent normalized mean±SEM. Cell viability was measured by CellTiter-Blue®; n=41-98 wells/condition.
Undifferentiated SH-SY5Y human neuroblastoma cells (ATCC, Manasses, Va.) were maintained in humidified 5% CO2 in 1:1 Ham's F12 nutrient mixture with Glutamax® and Minimal Essential Medium with L-glutamine (MEM-Alpha), 10% FBS, and 1% penicillin/streptomycin (Gibco® Invitrogen Corp., Carlsbad, Calif.).
as §3

[5] = doses that should produce pharmacodynamically effective CNS concentrations; cited from earlier work
[6] = test system: digitonin-treated cortical neurons; assay: ATP production following ADP pulse in digitonin-treated cortical neurons; type: cell-based, rat; conditions: dexpramipexole 30 μM
[7] = target: ATP synthesis in liver mitochondria (Rattus norvegicus, UniProt P19511+Q06647)
Protocol: Synthesis of ATP in liver mitochondria was measured using an ATP determination kit (A-22066; Molecular Probes, Eugene, Oreg.), supplemented with 1 mM sodium succinate and 500 nM rotenone. Assays were performed in 96-well microplates (Becton Dickinson, Franklin Lakes, N.J.) in a final volume of […] consisting of 10 μL mitochondria (0.1 mg protein/ml final concentration), 10 μL of drug or control buffer and 90 μL ATP-determination reaction mixture. After a 5 min. recording of basal luciferase-generated luminescence, ADP (final concentration, 10 μM, 10 μL) was injected into each well. Luminescence was recorded every 6 sec for 15-20 min.

[8] = test system: leak conductance of urea-treated SMVs; assay: Patch clamp recordings of urea-treated SMVs (F1 removed); type: biochemical, rat
Protocol: F1 subunits were removed from SMVs by adapting previously-established methods. 60 mg SMV's/1 mL IB was treated with 1 mL of […] for 5 min. on ice, then centrifuged at 21000×g for 10 min. The pellet was washed 3× in IB (centrifugation at 21000×g for 10 min) and stored in IB.
Giga-ohm seals were formed on SMVs using pipettes and solutions as above. Peak membrane conductance was measured as described above.

C2C12 myoblasts = assay: OCR and ECAR in C2C12 myoblasts (Seahorse); type: cell-based, mouse
Protocol: as §2
OCR and ECAR were measured with a Seahorse® XF24 Flux Analyzer (Seahorse Bioscience, Billerica, Mass.). For PSI experiments on C2C12 cells, basal values were assessed in non-buffered DMEM Assay Medium without glucose, glutamine or pyruvate, and supplemented with 25 mM glucose, 6 mM Glutamax®, and 1 mM sodium pyruvate. […] Succinate and ADP stocks were diluted to 10× concentrations in pre-warmed XF MAS buffer, pH 7.2. Using a Plate Prep Station (Seahorse Bioscience, Billerica, Mass.), cells were washed with 1 mL buffer and were brought to 607 μL with buffer. […] Raw basal OCR and ECAR values were normalized as a percent of the mean control value for each individual experiment. Normalized data from experiments were expressed as mean±SEM.

complex V (F1FO ATPase) [9] = target: T1, complex V (F1FO ATPase) (Rattus norvegicus, UniProt P19511+Q06647); conditions: concentration-dependent
Protocol: ATP hydrolysis was also measured using an NADH-ATP-synthase kit (Mitosciences, USA; catalog #MS541), according to the manufacturer's protocol with modifications. SMVs were added 20 min. prior to addition of the reagent mix. The rate of change in […] over time as NADH was oxidized was measured as a decrease in absorbance at 340 nm.

complex V (F1FO ATPase) [10] = target: T1, complex V (F1FO ATPase); assay: ATP hydrolysis in SMVs, luciferin-luciferase assay; type: biochemical; set-up: from tissue; host or cells: rat brain mitochondria, lubrol-insoluble submitochondrial vesicles (SMVs)
Source text: 3 wells were used for each condition, repeated at least 3× on different SMV isolations.

SMVs (F1FO ATP synthase) = SMVs (F1FO ATP synthase) (Rattus norvegicus, UniProt P19511+Q06647); conditions: 20 μM unlabeled dexpramipexole; non-urea treated SMVs; preliminary experiment
[11] = co-incubation of dexpramipexole 30 μM and PSI 30 nM

CCCN[C@@H]1CCc2nc(N)sc2C1 [dexpramipexole, (6R)-4,5,6,7-tetrahydro-N-6-propyl-2,6-benzothiazole-diamine]
ATP levels (C2C12 cells [1]): neither ATP levels nor cell viability (FIG. 5b) were significantly affected | in vitro cytoprotection [2]: significant concentration-dependent in vitro cytoprotection | cell viability (C2C12 cells [3]): neither ATP levels nor cell viability (FIG. 5b) were significantly affected | cytoprotective concentrations [4]: ≥ 10 µM | protection against PSI-induced cell death ([4]; pretreatment with dexpramipexole): protective; also recorded: inhibited PSI-induced cell death in a concentration-dependent manner | safety and tolerability [5]: safe and well-tolerated | initial slope of ATP synthesis following an ADP pulse [6]: unchanged | maximal ATP levels [6]: unchanged | Hill slope of CRC [7]: < 1 | leak conductance after removal of F1 [8]: no longer inhibited the conductance | ECAR (C2C12 myoblasts; [11]): no increase in ECAR | OCR (C2C12 myoblasts; [11]): significant decrease in OCR | OCR (C2C12 myoblasts; dexpramipexole 30 μM or PSI 30 nM alone, 18 hr): significant decrease in OCR; also recorded: significantly decreased | ATP hydrolysis (change in NADH signal) (complex V (F1FO ATPase) [9]): significantly enhanced ATP hydrolysis | EC50 (complex V (F1FO ATPase) [10]): 1630 nM | reduction in ^14C-dexpramipexole binding by competition (SMVs (F1FO ATP synthase)): 34%
